Experimental data from the supplement of paper PMC11451515.

Key:
Conditions in all cases: 48 h
NOMO1 [1] = experiment: AUC of viability dose-response curve (% viability x log10 dose units); higher = less sensitive
Outline: (§1)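 Library compounds in DMSO were applied for 48 h at 37°C at 11 threefold doses (47 μM to 0.79 nM) to medium-adapted leukemia cells in 1536-well plates holding 500 or 1000 cells/well. Luminescence from CellTiter-Glo One was normalised plate by plate against DMSO and cell-free wells. Area under the curve came from trapezoidal integration of a log-logistic fit, after scaling curves that rose above full viability and discarding those that failed quality control. The fit had four parameters and used log10 doses.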

SEM cells [2] = experiment: as above
Outline: as §1

P12-Ichikawa [3] = experiment: as above
Outline: as §1

SEM cells [4] = experiment: cell viability relative to DMSO control; higher = less cytotoxic
Outline: (§2)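 Three leukemia lines were tested: NOMO1 and SEM at 500 cells/well and P12-Ichikawa at 1000 cells/well. Each was adapted for at least four passages in each medium and seeded in 5 μl in 1536-well plates, and library compounds in DMSO were pin-dosed from 47 μM to 0.79 nM in 11 threefold steps. After 48 h at 37°C, CellTiter-Glo One luminescence was read. Viability is a percentage relative to DMSO wells on each plate, with cell-free wells as background.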

NOMO1 [5] = experiment: as above
Outline: as §2

P12-Ichikawa [6] = experiment: as above
Outline: as §2

CN(C)CCN(C)CCc1ccc(Cl)c(Cl)c1
AUC of viability dose-response curve
Conditions	NOMO1 [1]	P12-Ichikawa [3]	SEM cells [2]
HPLM + 10% dialyzed FBS	473	467	466
RPMI 5 mM glucose + 10% FBS	473	465	458
RPMI 5 mM glucose + 10% dialyzed FBS	473	466	451

cell viability [%], SEM cells [4]
Conditions	HPLM + 10% dialyzed FBS	RPMI 5 mM glucose + 10% FBS
0.000781 µM	118	123
0.00234 µM	114	101
0.00702 µM	132	121
0.0211 µM	131	125
0.0632 µM	128	124
0.19 µM	131	133
0.569 µM	127	145
1.71 µM	119	132
5.12 µM	122	127
15.4 µM	114	131
46.1 µM	114	126

CN1C(=O)C(Cc2c[nH]c3ccccc23)NC1=S (centres undefined)
AUC of viability dose-response curve
Conditions	NOMO1 [1]	P12-Ichikawa [3]	SEM cells [2]
HPLM + 10% dialyzed FBS	467	458	437
RPMI 5 mM glucose + 10% FBS	448	450	405
RPMI 5 mM glucose + 10% dialyzed FBS	451	461	422

C[C@@H](c1ncncc1F)[C@](O)(Cn1cncn1)c1ccc(F)cc1F
AUC of viability dose-response curve
Conditions	HPLM + 10% dialyzed FBS	RPMI 5 mM glucose + 10% FBS	RPMI 5 mM glucose + 10% dialyzed FBS
NOMO1 [1]	462	448	446
P12-Ichikawa [3]	464	436	450

cell viability [%]
Conditions	NOMO1 [5]	P12-Ichikawa [6]	SEM cells [4]
HPLM + 10% dialyzed FBS, 0.000781 µM	117	111	119
HPLM + 10% dialyzed FBS, 0.00234 µM	121	115	116
HPLM + 10% dialyzed FBS, 0.00702 µM	110	110	118
HPLM + 10% dialyzed FBS, 0.0211 µM	110	107	110
HPLM + 10% dialyzed FBS, 0.0632 µM	125	107	121
HPLM + 10% dialyzed FBS, 0.19 µM	114	107	25.3
HPLM + 10% dialyzed FBS, 0.569 µM	120	110	114
HPLM + 10% dialyzed FBS, 1.71 µM	107	108	118
HPLM + 10% dialyzed FBS, 5.12 µM	111	103	19
HPLM + 10% dialyzed FBS, 15.4 µM	108	102	120
HPLM + 10% dialyzed FBS, 46.1 µM	93.3	89.6	83.4
RPMI 5 mM glucose + 10% FBS, 0.000781 µM	111	123	–
RPMI 5 mM glucose + 10% FBS, 0.00234 µM	111	130	–
RPMI 5 mM glucose + 10% FBS, 0.00702 µM	114	119	–
RPMI 5 mM glucose + 10% FBS, 0.0211 µM	103	121	–
RPMI 5 mM glucose + 10% FBS, 0.0632 µM	108	111	–
RPMI 5 mM glucose + 10% FBS, 0.19 µM	107	119	–
RPMI 5 mM glucose + 10% FBS, 0.569 µM	126	116	–
RPMI 5 mM glucose + 10% FBS, 1.71 µM	108	114	–
RPMI 5 mM glucose + 10% FBS, 5.12 µM	107	98.9	–
RPMI 5 mM glucose + 10% FBS, 15.4 µM	91.1	105	–
RPMI 5 mM glucose + 10% FBS, 46.1 µM	93.8	92.6	–
RPMI 5 mM glucose + 10% dialyzed FBS, 0.000781 µM	111	109	123
RPMI 5 mM glucose + 10% dialyzed FBS, 0.00234 µM	114	118	125
RPMI 5 mM glucose + 10% dialyzed FBS, 0.00702 µM	128	116	126
RPMI 5 mM glucose + 10% dialyzed FBS, 0.0211 µM	115	105	126
RPMI 5 mM glucose + 10% dialyzed FBS, 0.0632 µM	111	111	141
RPMI 5 mM glucose + 10% dialyzed FBS, 0.19 µM	97.9	104	32.3
RPMI 5 mM glucose + 10% dialyzed FBS, 0.569 µM	108	108	140
RPMI 5 mM glucose + 10% dialyzed FBS, 1.71 µM	116	107	103
RPMI 5 mM glucose + 10% dialyzed FBS, 5.12 µM	99.8	102	15.2
RPMI 5 mM glucose + 10% dialyzed FBS, 15.4 µM	111	89.5	121
RPMI 5 mM glucose + 10% dialyzed FBS, 46.1 µM	97.4	91.4	73.9
